# Measured values: ChEMBL document CHEMBL2424593, “New scaffolds of natural origin as Integrase-LEDGF/p75 interaction inhibitors: virtual screening and activity assays” (Eur J Med Chem, 2013)
# Active and inactive are the calls of the source. The rule behind the calls is not given here.
# Experiments:
# [1] = Inhibition of HIV1 His6-tagged integrase-LEDGF/p75 (unknown origin) interaction at 100 uM incubated for 30 mins followed by LEDGF/p75 addition measured after 4 hrs relative to control
# [2] = test system: Human immunodeficiency virus; experiment: Antiviral activity against HIV 3B infected in human MT4 cells assessed as protection against virus-induced cytopathic effect at 100 uM by MTT assay; type: functional, organism-based
# [3] = Inhibition of HIV1 His6-tagged integrase-LEDGF/p75 (unknown origin) interaction incubated for 30 mins followed by LEDGF/p75 addition measured after 4 hrs
# [4] = test system: MT4; experiment: Cytotoxicity against human MT4 cells at 125 uM by MTT assay; type: cell-based; settings: mt4, 125 µM
SMILES,inhibition [1],Activity [2],IC50 [3] [µM],Activity [4]
O=C(O)c1nn(Cc2ccc(Cl)cc2Cl)c2ccccc12,40%,,,
Cc1c(OC(C(=O)O)c2ccccc2)ccc2c(-c3ccccc3)cc(=O)oc12 (racemic),87%,inactive,37.2,
Cn1c(=O)c(CC(=O)O)c(O)c2ccccc21,inactive,,,
Cc1cn2c3c(=O)n(CCc4ccccc4)c(=O)n(C)c3nc2n1CC(=O)O,52%,,,
COc1ccc2nc(C)cc(Nc3cccc(C(=O)O)c3)c2c1,30%,,,
COc1ccc(/C=C2/SC(=S)N(C(C(=O)O)C(C)C)C2=O)cc1 (racemic),,inactive,41.3,Non-toxic
Cc1ccc2[nH]c(=O)c(CC(=O)O)c(-c3ccccc3)c2c1,61%,,52.5,
CCCC(C(=O)O)c1cnc2ccc(Cl)cc2c1-c1ccccc1 (racemic),,,1.37,
O=C(O)c1cc(N(Cc2ccccc2O)Cc2ccccc2O)ccc1O [LAVENDUSTIN B],58%,,94.1,
CCc1cc(C(=O)Cc2ccc3c(c2)OCCO3)c(O)cc1OCC(=O)O,50%,,> 100,
O=C(O)Cc1c(-c2ccccc2)c2cc(Cl)ccc2[nH]c1=O,,,12.2,
